From publication PMC10847306, “The antibacterial activity and mechanism of a novel peptide MR-22 against multidrug-resistant Escherichia coli” (Frontiers in Cellular and Infection Microbiology, 2024)

Experiments:
E. coli E19 = test: Mice peritonitis model; type: in vivo; conditions: C57BL/6J mice, E19 peritonitis; 10 mg/kg 1 h after infection; after 36 h; ten mice per group; control group 8.73 ± 0.38
Experimental: This study utilized female C57BL/6J mice aged 6-8 weeks, weight range of 18-20 g, which were obtained from SPF Biotechnology Co., Ltd (Beijing, China). The animals were housed under maintained on a standard 12 h light/12 h dark cycle. All animal experiments were conducted in accordance with the Ethical Principles in Animal Research adopted by Guizhou Medical University and were approved by the Institutional Animal Care and Use Committee.
To evaluate the in vivo efficacy of MR-22, we used a mice peritonitis model. A total of 60 mice were divided into three groups: treatment group (10 mg/kg MR-22, intraperitoneal injection), positive control group (10 mg/kg imipenem, intraperitoneal injection), and normal control group (PBS, intraperitoneal injection). Peritonitis was induced by intraperitoneal injection of 1.0 × 10^8 CFU bacterial inoculum in 0.2 mL of E. coli E19. Survival rates were recorded every 12 h for 7 days.
To study the protective effects of MR-22, 10 mice in each group were sacrificed, and peritoneal lavage fluid, blood, liver, and kidney were collected 36 h after administration. The number of colonies in peritoneal lavage fluid and blood were determined by culturing on LB agar, while the tissues were fixed in 4% paraformaldehyde and subjected to hematoxylin and eosin staining to study the morphology.

[1] = system: E. coli clinical strain E21; test: microbe, parasite or virus in culture
Experimental: (§1) The clinical strains used in this study were obtained from a tertiary healthcare facility located in Guiyang, a city situated within the Guizhou Province of China. The E. coli ATCC 25922 was obtained from the Key and Characteristic Laboratory of Modern Pathogen Biology at Guizhou Medical University in Guiyang, China. All strains were stored at –80°C in LB medium and routinely cultured at LB medium at 37°C.
(§2) The MIC were determined by a micro dilution method in Mueller-Hinton broth (MHB) ([Cuenca-Estrella et al., 2010]). The final concentration of bacterial suspension in MHB were 1.0×10^6 CFU/mL. The final concentration of MR-22 ranged 1 ~ 256 μg/mL in 96 wells plate broth at 37°C for 16~18 h. Imipenem was employed as positive control, bacterial grown without treatment as negative control and MHB as blank control. MIC determination was performed by reading the OD600 nm. Take 100 μL samples in holes that have never seen bacterial growth and place them on the LB agar board. The concentration of MR-22 with no bacterial growth was defined as the MBC.

[2] = system: E. coli clinical strain E16; test: microbe, parasite or virus in culture
Experimental: as §1, §2

[3] = system: E. coli clinical strain E11; test: microbe, parasite or virus in culture
Experimental: as §1, §2

[4] = system: E. coli clinical strain E06; test: microbe, parasite or virus in culture
Experimental: as §1, §2

[5] = system: E. coli clinical strain E20; test: microbe, parasite or virus in culture
Experimental: as §1, §2

[6] = system: E. coli clinical strain E08; test: microbe, parasite or virus in culture
Experimental: as §1, §2

[7] = system: E. coli clinical strain E07; test: microbe, parasite or virus in culture
Experimental: as §1, §2

[8] = system: E. coli clinical strain E04; test: microbe, parasite or virus in culture
Experimental: as §1, §2

[9] = system: E. coli clinical strain E19; test: microbe, parasite or virus in culture
Experimental: as §1, §2

[10] = system: E. coli clinical strain E14; test: microbe, parasite or virus in culture
Experimental: as §1, §2

[11] = system: E. coli clinical strain E12; test: microbe, parasite or virus in culture
Experimental: as §1, §2

[12] = system: E. coli clinical strain E05; test: microbe, parasite or virus in culture
Experimental: as §1, §2

[13] = system: E. coli clinical strain E03; test: microbe, parasite or virus in culture
Experimental: as §1, §2

[14] = system: E. coli clinical strain E10; test: microbe, parasite or virus in culture
Experimental: as §1, §2

[15] = system: E. coli clinical strain E18; test: microbe, parasite or virus in culture
Experimental: as §1, §2

[16] = system: E. coli clinical strain E15; test: microbe, parasite or virus in culture
Experimental: as §1, §2

[17] = system: E. coli clinical strain E22; test: microbe, parasite or virus in culture
Experimental: as §1, §2

[18] = system: E. coli clinical strain E17; test: microbe, parasite or virus in culture
Experimental: as §1, §2

[19] = system: E. coli clinical strain E02; test: microbe, parasite or virus in culture
Experimental: as §1, §2

[20] = system: E. coli clinical strain E01; test: microbe, parasite or virus in culture
Experimental: as §1, §2

[21] = system: E. coli clinical strain E13; test: microbe, parasite or virus in culture
Experimental: as §1, §2

[22] = system: E. coli clinical strain E09; test: microbe, parasite or virus in culture
Experimental: as §1, §2

[23] = system: E. coli ATCC 25922 and clinically drug resistant isolated strains; test: microbe, parasite or virus in culture; type: cell-based, Escherichia coli; conditions: Escherichia coli; E. coli ATCC 25922 and 22 clinical isolates; microdilution, MHB; read-out: MIC over all strains tested
Experimental: as §2

E. coli ATCC 25922 = test: microbe, parasite or virus in culture
Experimental: as §2

With `C[C@@H](O)[C@H]1C(=O)N2C(C(=O)O)=C(SCCN=CN)C[C@H]12` [IPM, imipenem] the “bacterial content in the peritoneal lavage fluid” value (E. coli E19) was 4.20 ± 0.25 Log10CFU/mL, the MIC ([1]; Escherichia coli, 18 h) was ≤ 1 µg/mL and the “susceptibility category (S/I/R) given with the MIC” value (“susceptibility category” below) ([1]; strain E21) was “S”. The MIC ([2]; Escherichia coli, 18 h) was ≤ 1 µg/mL, the “susceptibility category” value ([2]; strain E16) was “S” and the MIC ([3]; Escherichia coli, 18 h) was ≤ 1 µg/mL. The “susceptibility category” value ([3]; strain E11) was “S”, the MIC ([4]; Escherichia coli, 18 h) was ≤ 1 µg/mL and the “susceptibility category” value ([4]; strain E06) was “S”. For the same compound, the MIC ([5]; Escherichia coli, 18 h) was ≤ 1 µg/mL, the “susceptibility category” value ([5]; strain E20) was “S” and the MIC ([6]; Escherichia coli, 18 h) was ≤ 1 µg/mL. The “susceptibility category” value ([6]; strain E08) was “S”, the MIC ([7]; Escherichia coli, 18 h) was ≤ 1 µg/mL and the “susceptibility category” value ([7]; strain E07) was “S”. For the same compound, the MIC ([8]; Escherichia coli, 18 h) was ≤ 1 µg/mL, the “susceptibility category” value ([8]; strain E04) was “S” and the MIC ([9]; Escherichia coli, 18 h) was ≤ 1 µg/mL. The “susceptibility category” value ([9]; strain E19) was “S”, the MIC ([10]; Escherichia coli, 18 h) was ≤ 1 µg/mL and the “susceptibility category” value ([10]; strain E14) was “S”. For the same compound, the MIC ([11]; Escherichia coli, 18 h) was ≤ 1 µg/mL, the “susceptibility category” value ([11]; strain E12) was “S” and the MIC ([12]; Escherichia coli, 18 h) was ≤ 1 µg/mL. The “susceptibility category” value ([12]; strain E05) was “S”, the MIC ([13]; Escherichia coli, 18 h) was ≤ 1 µg/mL and the “susceptibility category” value ([13]; strain E03) was “S”. For the same compound, the MIC ([14]; Escherichia coli, 18 h) was ≤ 1 µg/mL, the “susceptibility category” value ([14]; strain E10) was “S” and the MIC ([15]; Escherichia coli, 18 h) was ≤ 1 µg/mL. For the same compound, the “susceptibility category” value ([15]; strain E18) was “S”, the MIC ([16]; Escherichia coli, 18 h) was ≤ 1 µg/mL and the “susceptibility category” value ([16]; strain E15) was “S”. For the same compound, the MIC ([17]; Escherichia coli, 18 h) was ≤ 1 µg/mL, the “susceptibility category” value ([17]; strain E22) was “S” and the MIC ([18]; Escherichia coli, 18 h) was ≤ 1 µg/mL. The “susceptibility category” value ([18]; strain E17) was “S”, the MIC ([19]; Escherichia coli, 18 h) was ≤ 1 µg/mL and the “susceptibility category” value ([19]; strain E02) was “S”. For the same compound, the MIC ([20]; Escherichia coli, 18 h) was ≤ 1 µg/mL, the “susceptibility category” value ([20]; strain E01) was “S” and the MIC ([21]; Escherichia coli, 18 h) was ≤ 1 µg/mL. The “susceptibility category” value ([21]; strain E13) was “S”, the MIC ([22]; Escherichia coli, 18 h) was ≤ 1 µg/mL and the “susceptibility category” value ([22]; strain E09) was “S”. The MIC [23] was ≤ 1 µg/mL, the “susceptibility category” value (E. coli ATCC 25922; E. coli ATCC 25922) was “S” and the MIC (E. coli ATCC 25922; Escherichia coli, ATCC25922, 18 h) was ≤ 1 µg/mL.
